Test results as given in ChEMBL document CHEMBL3988442, “University of Dundee, Small-Polar-MMV Screening Library” (2021).

Key:
[1] = system: Plasmodium falciparum; assay: Calibr Malaria Delayed Death Assay SOP; format: functional, organism-based; conditions: for IC50: Plasmodium falciparum
[2] = microbe, parasite or virus in culture; conditions: Mycobacterium tuberculosis, 72 h, read-out: pIC50 (converted)
[3] = microbe, parasite or virus in culture; conditions: Mycobacterium tuberculosis, 96 h, read-out: pIC50 (converted)

O[C@H]1[C@H](n2cc(CN3CCCC3)nn2)c2ccccc2C12CCNCC2
pIC50 [1]: 7.12 | IC50 [1]: 0.0647 µM

Cc1cnccc1CN1CC[C@H](Oc2cccc(F)c2)[C@@](C)(O)C1
pIC50 [1]: 5.772 | IC50 [1]: 1.42 µM

CCn1ccnc1CN1CCCC(CO)(Cc2cccc(Cl)c2)C1 (centres undefined)
pIC50 [1]: 6.076 | IC50 [1]: 0.575 µM

I.c1ccc(Sc2ccc3c(c2)OCO3)c(CNC2=NCCN2)c1
pIC50 [1]: 6.103 | IC50 [1]: 0.604 µM

Fc1ccccc1C1(CNC2CCOC3(CCOCC3)C2)CCCC1 (centres undefined)
pIC50 [1]: 6.12 | IC50 [1]: 0.796 µM

Cl.Fc1ccccc1Cn1c(C2CCNCC2)cc2cccnc21
pIC50 [1]: 6.466 | IC50 [1]: 0.293 µM

CC(NCCN1CCC(N(C)C)CC1)c1ccc(Cl)s1 (centres undefined)
pIC50 [1]: 6.149 | IC50 [1]: 0.996 µM

Clc1ccc(C2(CNC3=NCCN3)CC2)cc1.I
pIC50 [1]: 6.323 | IC50 [1]: 0.505 µM

CN(Cc1ccco1)C[C@H]1OC[C@@H]2CCN(Cc3ccsc3)C[C@@H]21.O=C(O)C(F)(F)F.O=C(O)C(F)(F)F
pIC50 [1]: 6.029 | IC50 [1]: 1.29 µM

COc1cccc(OCC(=O)NCC2CCCO2)c1 (centres undefined)
IC50 [2]: 194 µM | IC50 [3]: 145 µM

NCCCc1nc2ccccc2o1
IC50 [2]: 211 µM | IC50 [3]: 255 µM

COc1ccccc1CNc1ccc(C#N)cn1
IC50 [2]: 194 µM | IC50 [3]: 279 µM

COc1ccc(C(=O)NC2=NCCS2)c(O)c1
IC50 [2]: 456 µM | IC50 [3]: 185 µM

NC(=O)NC(=O)CCN1CCCN(c2nccs2)CC1
IC50 [2]: 35.5 µM | IC50 [3]: 25.1 µM

COc1cccc(N2CCC(CN)C2)c1 (centres undefined)
IC50 [2]: 69.7 µM | IC50 [3]: 290 µM

Cc1ccccc1OCC(O)CN1CCC[C@@H]1CO (some centres undefined)
IC50 [2]: 280 µM | IC50 [3]: > 501 µM

Cc1ccccc1-c1[nH][nH]c(=O)c1CCN
IC50 [2]: 230 µM | IC50 [3]: > 501 µM

CN(C)c1ccc(C(=O)N2CCCC2c2cnn(C)c2)nn1 (centres undefined)
IC50 [2]: > 50.1 µM | IC50 [3]: > 50.1 µM

Cc1cc(N2CCN(C(=O)Cc3ccc4c(c3)OCO4)CC2)cc(C)n1
IC50 [2]: > 50.1 µM | IC50 [3]: > 50.1 µM

O=C(Nc1ccc(Cl)cn1)c1ccncc1
IC50 [2]: 304 µM | IC50 [3]: > 501 µM

COc1cc2c(cc1CNC(Cc1cccs1)c1nccs1)OCO2 (centres undefined)
IC50 [2]: > 50.1 µM | IC50 [3]: 17.3 µM

CCOC(=O)C(C)Nc1ccc2c(c1)CCCC(=O)N2 (centres undefined)
IC50 [2]: > 501 µM | IC50 [3]: > 501 µM

c1ccc(Cc2cccc(C3CCCN3C3CCOCC3)n2)cc1 (centres undefined)
IC50 [2]: 13.2 µM | IC50 [3]: > 50.1 µM

CC(C)Oc1ccc(S(=O)(=O)N2CCC(N)C2)cc1 (centres undefined)
IC50 [2]: 212 µM | IC50 [3]: > 501 µM

Cn1cc(CNC(=O)C2CSc3ccccc3O2)cn1 (centres undefined)
IC50 [2]: 218 µM | IC50 [3]: > 501 µM

COc1ccc(Nc2ncccc2S(N)(=O)=O)cc1
IC50 [2]: > 501 µM | IC50 [3]: > 501 µM

CCS(=O)(=O)NCCOc1ccc2c(c1)OCO2
IC50 [2]: 230 µM | IC50 [3]: 204 µM

CN(Cc1ccc(Cl)s1)C(=O)C1CCN(C(N)=O)CC1
IC50 [2]: > 501 µM | IC50 [3]: > 501 µM

O=C(Nc1cccc(CO)n1)Nc1ccccc1Cl
IC50 [2]: 246 µM | IC50 [3]: > 501 µM

Cc1ccc(C2(O)CCNC2)cc1 (centres undefined)
IC50 [2]: 181 µM | IC50 [3]: > 501 µM

CSCCN(C)Cc1cn(-c2ccccc2)nn1
IC50 [2]: > 501 µM | IC50 [3]: > 501 µM

O=c1c2ccccc2cnn1CN1CCCC1
IC50 [2]: > 501 µM | IC50 [3]: > 501 µM

COc1ccccc1OC(C)CN (centres undefined)
IC50 [2]: 20.2 µM | IC50 [3]: 61.1 µM

CCN1CCN(C(=O)C2CCCOC2)c2ccccc21 (centres undefined)
IC50 [2]: 158 µM | IC50 [3]: 276 µM

CC(C)c1nnc(CN(C)Cc2ccccc2-c2ccccc2)o1
IC50 [2]: 15.8 µM | IC50 [3]: 11.8 µM

CCOc1ccc(C(=O)Nc2ccnc(C)c2)cn1
IC50 [2]: 279 µM | IC50 [3]: > 501 µM

Cc1cccc(NCCC(=O)NC2CCCC2)n1
IC50 [2]: 122 µM | IC50 [3]: > 501 µM

CCC(CO)NC(=O)C1(c2ccc(F)cc2F)CCC1 (centres undefined)
IC50 [2]: 313 µM | IC50 [3]: > 501 µM

CN(CCS(=O)(=O)c1cc(Cl)ccc1Cl)CC(N)=O
IC50 [2]: 24.7 µM | IC50 [3]: > 50.1 µM

NC(=O)NC(=O)CCS(=O)(=O)c1cc(F)ccc1F
IC50 [2]: 70.1 µM | IC50 [3]: 139 µM

NCC(CO)Cc1ccc(F)c(Br)c1 (centres undefined)
IC50 [2]: 375 µM | IC50 [3]: 249 µM

CN(C(=O)c1ccccc1)S(=O)(=O)c1ccccc1
IC50 [2]: 280 µM | IC50 [3]: 303 µM

OCCNCCNCc1ccc(-c2ccccc2)o1
IC50 [2]: 159 µM | IC50 [3]: 29.2 µM

COC(=O)C(NC(=O)c1ccc(NC2CC2)nc1)c1ccccc1 (centres undefined)
IC50 [2]: > 50.1 µM | IC50 [3]: 21.9 µM

O=C(COCC(F)(F)F)NCc1cn2ccccc2n1
IC50 [2]: 92.3 µM | IC50 [3]: > 501 µM

CCOc1ncc(C(=O)NCC(C)(O)C(C)C)cc1Cl (centres undefined)
IC50 [2]: 59.9 µM | IC50 [3]: 141 µM

c1cnc(N2CC[C@@H](OCC3CC3)[C@@H]2Cc2cccnc2)nc1
IC50 [2]: > 50.1 µM | IC50 [3]: > 50.1 µM
